Experiments:
α-arabinosidase = experiment: Enzymatic hydrolysis of the muscat glycosidic extract by α-arabinosidase (GC); assay type: biochemical
Method: (§1) 40 μl of glycosidic extract and 60 μl of a solution of Glc-pNP (internal standard) at a concentration of 50 mg/1 in ethyl acetate are introduced into a suitable flask. The mixture is taken to dryness at 40° C. with a stream of nitrogen. 40 μl of the silylating reagent (Tri-sil, Pierce, Rockford, Ill., U.S.A.) are then introduced; the flask is sealed and maintained at 40° C. for 20 minutes. After rapid cooling, the silylated sample is then ready for analysis by GC.
(§2) The apparatus used consists of a Series 30C gas chromatograph, an "on-column" injector (injected volume 0.5 μl) and a flame ionization detector (Girdel, France). A thin film (0.20 μm) of an OV-1 (Girdel) apolar silicone phase is grafted onto the inner wall of the capillary column ([…].). The oven temperature is programmed from 125 to 305° C. at the rate of 5° C./minute, then maintained at 305° C. for 15 minutes. Finally, the detector temperature is set at 300° C. and hydrogen is used as the carrier gas at a pressure of 120 kPa.
(§3) The experimental protocols for the enzymatic hydrolysis on the glycosidic extract are collated in Table 3. […]

α-rhamnosidase = experiment: Enzymatic hydrolysis of the muscat glycosidic extract by α-rhamnosidase (GC); assay type: biochemical; details: 0.15 nkat, 40° C., 16 h
Method: as §1, §2, §3

β-glucosidase [1] = experiment: Second stage: consecutive action of β-glucosidase on the pre-incubated glycosidic extract (GC); assay type: biochemical, sweet almond; details: 0.15 nkat, 40°, 16 h
Method: as §1, §2, §3

[2] = target: T1, β-glucosidase of Klerzyme 200 (Aspergillus niger, UniProt A2RAL4); experiment: Hydrolysis of Hemicellulase-pretreated glycosidic extract by Klerzyme 200 (GC); assay type: biochemical; details: glycosidic extract pretreated with Hemicellulase
T1 sequence (A2RAL4 20-860): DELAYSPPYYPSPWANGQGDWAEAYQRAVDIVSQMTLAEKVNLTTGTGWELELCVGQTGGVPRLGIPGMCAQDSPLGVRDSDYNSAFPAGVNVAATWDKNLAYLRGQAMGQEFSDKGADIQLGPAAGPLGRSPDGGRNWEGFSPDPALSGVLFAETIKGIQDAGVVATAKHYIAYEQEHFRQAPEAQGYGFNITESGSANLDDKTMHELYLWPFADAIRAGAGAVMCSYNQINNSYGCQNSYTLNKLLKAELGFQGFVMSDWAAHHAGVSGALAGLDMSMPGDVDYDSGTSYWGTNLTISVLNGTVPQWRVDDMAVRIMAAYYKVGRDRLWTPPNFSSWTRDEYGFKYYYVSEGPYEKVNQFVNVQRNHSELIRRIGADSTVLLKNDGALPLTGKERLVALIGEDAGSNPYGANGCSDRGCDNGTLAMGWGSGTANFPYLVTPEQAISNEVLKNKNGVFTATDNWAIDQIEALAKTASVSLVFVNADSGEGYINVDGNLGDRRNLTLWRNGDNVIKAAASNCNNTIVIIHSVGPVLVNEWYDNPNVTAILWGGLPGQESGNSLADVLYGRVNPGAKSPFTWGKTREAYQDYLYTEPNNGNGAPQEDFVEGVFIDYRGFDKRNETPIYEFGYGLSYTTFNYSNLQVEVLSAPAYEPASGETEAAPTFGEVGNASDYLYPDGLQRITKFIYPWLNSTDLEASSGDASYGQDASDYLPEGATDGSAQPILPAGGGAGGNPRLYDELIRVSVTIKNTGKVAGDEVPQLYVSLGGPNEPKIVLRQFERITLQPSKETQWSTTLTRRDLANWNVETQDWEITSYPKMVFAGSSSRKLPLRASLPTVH
From the text: In another aspect, the action of the β-apiosidase on a glycosidic extract (FIG. 11A) was studied after the action of the Hemicellulase preparation (containing α-rhamnosidase, α-arabinosidase and β-glucosidase activities) on this extract. The Hemicellulase preparation eliminated the rhamnosyl- and arabinosylglucosides (FIG. 11B). Afterwards, the apiosylglucosides remaining were subjected to the hydrolytic action of the β-apiosidase and β-glucosidase of Klerzyme 200 (FIG. 11C). […] This is attributable to the weak affinity of the β-glucosidase of Klerzyme 200, vis-a-vis the linalyl glucosides.

[3] = Vinification of Muscat of Frontignan must with Klerzyme 200, free and bound aroma components by GC
Method: After storing for 1.5 months at 20°-22° C., the free and bound aroma component fractions of each sample were extracted on an Amberlite XAD-2 column in 50 ml aliquots, and analyzed via GC.
In another aspect, the action of an enzyme preparation (Klerzyme 200) containing β-apiosidase activity, in addition to α-rhamnosidase, α-arabinosidase and β-glucosidase activity, was studied during the fermentation of dry wines from the Muscat of Frontignan must. Klerzyme 200 (containing (per liter must) 2,770 nkat β-glucosidase, 704 nkat β-apiosidase, 276 nkat α-arabinosidase and 35 nkat α-rhamnosidase) and 10 g/hl of a wine yeast (Saccharomyces cerevisiae, type K1) were added to the must.

β-glucosidase [4] = details: cited from earlier work

Question: Which results are given for `C=CC(C)(CCC=C(C)C)O[C@@H]1O[C@H](CO)[C@@H](O)[C@H](O)[C@H]1O` (stereo partly drawn) [Glc-Lin, linalyl β-D-glucopyranoside]?
Answer: Terpene monoglucosides liberated by α-arabinosidase from a glycosidic extract (α-arabinosidase; 0.15 nkat, 40° C., 16 h): 10%; % of monoglucosides (liberated by the two enzymes together) (α-arabinosidase; sum of α-arabinosidase and α-rhamnosidase): 19%; Terpene monoglucosides liberated by α-rhamnosidase from a glycosidic extract (α-rhamnosidase): 9%; hydrolysis by consecutive action of β-glucosidase (second stage, GC) (β-glucosidase [1]; listed as linalyl glucoside): incomplete hydrolysis; hydrolysis by consecutive action of β-glucosidase (second stage, GC) (β-glucosidase [1]; listed as linanyl monoglucoside): reduction; hydrolysis by the β-glucosidase of Klerzyme 200 [2]: not hydrolyzed; hydrolysis by Klerzyme 200 during vinification of dry wine [3]: not hydrolyzed; affinity of the sweet almond β-glucosidase for the substrate (β-glucosidase [4]): low affinity

— patent US5573926A, “Process for obtaining aroma components and aromas from their precursors of a glycosidic nature, and aroma components and aromas thereby obtained” (Gist-brocades, N.V., priority 1989, dated 1996)
